US6737383B1, “Herbicidal oxadiazolidines” (priority 1999, dated 2004)

Experiments:
windgrass = experiment: Test E windgrass; type: in vivo, Apera spica-venti; settings: Postemergence
Method in brief: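 Compounds formulated in non-phytotoxic solvent mixture with surfactant; for postemergence, sprayed on plants at 1- to 4-leaf stage grown in 60:40 sandy loam/greenhouse potting mix. Kept in greenhouse ~21 to 28 days, then visually rated against untreated controls.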

Setaria faberii (SETFA) = experiment: Test F preemergence, alone and in mixture with rimsulfuron, SETFA; type: in vivo; settings: 21 days after treatment, 0-100 scale
Procedure: Abutilon theophrasti (ABUTH), Chenopodium album (CHEAL), Amaranthus rudis (AMATA), Setaria faberii (SETFA), Panicum dichotomiflorum (PANDI), and Digitaria sanguinalis (DIGSA) were grown from seed in pots of an artificial potting mixture in a greenhouse. Compounds of the present invention were applied at 70 and 105 g ai/ha preemergence. Rimsulfuron was applied at 8.8 and 17.5 g ai/ha. Mixtures of the compounds of the present invention and rimsulfuron were also applied.
Following application, the plants were maintained by watering as needed. A fertilizer solution of Peter's 20-20-20 (10 pounds/5 gallons of water) plus Sprint 330, a Iron Chelate micronutrient, (113.5 grams/5 gallons of water) was injected into the water with an Anderson fertilizer injection system to provide approximately 219 ppm of nitrogen with each watering. Artificial lighting was used to supplement natural light to produce a 14 hour photoperiod and: an additional one hour light period was used between 1:00 am to 2:00 am for a night interruption. Greenhouse temperatures were targeted for 27° C. in the day and 21° C. at night. At 21 days after treatment, all plants were evaluated for injury as compared to control plants that were sprayed only with non-phytotoxic solvent.
Colby's equation was used to calculate the expected additive herbicidal effect of the mixtures of Compound 21 and the mixture partners listed above. […]

Alexandergrass = experiment: Test D Alexandergrass; type: in vivo, Brachiaria plantaginea; settings: Postemergence, 0 to 100 scale
bermuda-grass = experiment: Test D bermudagrass; type: in vivo, Cynodon dactylon; settings: Postemergence, 0 to 100 scale
common ragweed = experiment: Test D common ragweed; type: in vivo, Ambrosia elatior; settings: Postemergence, 0 to 100 scale
common groundsel = experiment: Test D common groundsel; type: in vivo, Senecio vulgaris; settings: Postemergence, 0 to 100 scale
Johnson grass = experiment: Test D Johnson grass; type: in vivo, Sorghum halepense; settings: Postemergence, 0 to 100 scale
large crabgrass = experiment: Test D large crabgrass; type: in vivo, Digitaria sanguinalis; settings: Postemergence, 0 to 100 scale
purple nutsedge = experiment: Test D purple nutsedge; type: in vivo, Cyperus rotundus; settings: Postemergence, 0 to 100 scale
sandbur = experiment: Test D sandbur; type: in vivo, Cenchrus echinatus; settings: Postemergence, 0 to 100 scale
sourgrass = experiment: Test D sourgrass; type: in vivo, Trichachne insularis; settings: Postemergence, 0 to 100 scale
surinam grass = experiment: Test D surinam grass; type: in vivo, Brachiaria decumbens; settings: Postemergence, 0 to 100 scale
tall mallow = experiment: Test D tall mallow; type: in vivo, Malva sylvestris; settings: Postemergence, 0 to 100 scale
Green foxtail [1] = experiment: Test D green foxtail; type: in vivo; settings: Rate 250 g/ha; Postemergence; 0 to 100 scale
Green foxtail [2] = experiment: Test D green foxtail; type: in vivo; settings: Postemergence, 0 to 100 scale, 0 no injury, 100 complete control
[3] = Rate 16 g/ha, 0 no injury, 100 complete control
[4] = Rate 32 g/ha, 0 no injury, 100 complete control
[5] = Rate 64 g/ha, 0 no injury, 100 complete control
[6] = Rate 125 g/ha, 0 no injury, 100 complete control

Compound: CC(C)N(C(=O)n1oc(=O)n(C(C)C)c1=O)c1ccc(F)cc1 [Compound 131]
- Plant response rating, Windgrass (windgrass; Rate 62 g/ha, 0 to 100 scale): 85
- Windgrass plant response rating (windgrass; Rate 250 g/ha, 0 to 100 scale where 0 is no effect and 100 is complete control): 90
- SETFA Observed (Setaria faberii (SETFA); Alone: Cmpd. rate 70, Rimsulfuron 0): 35%
- SETFA Observed (Setaria faberii (SETFA); Alone: Cmpd. rate 105, Rimsulfuron 0): 65%
- Plant response rating, Alexandergrass (Alexandergrass; [3]): 0
- Plant response rating, Alexandergrass (Alexandergrass; [4]): 50
- Plant response rating, Alexandergrass (Alexandergrass; [5]): 100
- Plant response rating, Alexandergrass (Alexandergrass; [6]): 100
- Plant response rating, Alexandergrass (Alexandergrass; Rate 250 g/ha): 100
- Plant response rating, Bermudagrass (bermuda-grass; [3]): 30
- Plant response rating, Bermudagrass (bermuda-grass; [4]): 90
- Plant response rating, Bermudagrass (bermuda-grass; [5]): 100
- Plant response rating, Bermudagrass (bermuda-grass; [6]): 100
- Plant response rating, Bermudagrass (bermuda-grass; Rate 250 g/ha): 100
- Plant response rating, C. ragweed (common ragweed; [3]): 0
- Plant response rating, C. ragweed (common ragweed; [4]): 0
- Plant response rating, C. ragweed (common ragweed; [5]): 0
- Plant response rating, C. ragweed (common ragweed; [6]): 90
- Plant response rating, C. ragweed (common ragweed; Rate 250 g/ha): 100
- Plant response rating, Com. groundsel (common groundsel; [3]): 90
- Plant response rating, Com. groundsel (common groundsel; [4]): 100
- Plant response rating, Com. groundsel (common groundsel; [5]): 100
- Plant response rating, Com. groundsel (common groundsel; [6]): 100
- Plant response rating, Com. groundsel (common groundsel; Rate 250 g/ha): 100
- Plant response rating Johnsongrass (Johnson grass; [3]): 0
- Plant response rating Johnsongrass (Johnson grass; [4]): 0
- Plant response rating Johnsongrass (Johnson grass; [5]): 30
- Plant response rating Johnsongrass (Johnson grass; [6]): 60
- Plant response rating Johnsongrass (Johnson grass; Rate 250 g/ha): 100
- Plant response rating Large crabgrass (large crabgrass; [3]): 90
- Plant response rating Large crabgrass (large crabgrass; [4]): 100
- Plant response rating Large crabgrass (large crabgrass; [5]): 100
- Plant response rating Large crabgrass (large crabgrass; [6]): 100
- Plant response rating Large crabgrass (large crabgrass; Rate 250 g/ha): 100
- Plant response rating, Purple nutsedge (purple nutsedge; [3]): 0
- Plant response rating, Purple nutsedge (purple nutsedge; [4]): 0
- Purple nutsedge plant response rating (purple nutsedge; [5]): 0
- Purple nutsedge plant response rating (purple nutsedge; [6]): 30
- Plant response rating, Purple nutsedge (purple nutsedge; Rate 250 g/ha): 100
- Plant response rating, Sandbur (sandbur; [3]): 0
- Plant response rating, Sandbur (sandbur; [4]): 0
- Sandbur plant response rating (sandbur; [5]): 100
- Sandbur plant response rating (sandbur; [6]): 100
- Plant response rating, Sandbur (sandbur; Rate 250 g/ha): 100
- Sourgrass plant response rating (sourgrass; [6]): 50
- Plant response rating, Sourgrass (sourgrass; Rate 250 g/ha): —80
- Plant response rating, Surinam grass (surinam grass; [3]): 0
- Plant response rating, Surinam grass (surinam grass; [4]): 40
- Surinam grass plant response rating (surinam grass; [5]): 60
- Surinam grass plant response rating (surinam grass; [6]): 100
- Plant response rating, Surinam grass (surinam grass; Rate 250 g/ha): 100
- Plant response rating, Tall Mallow (tall mallow; [3]): 0
- Plant response rating, Tall Mallow (tall mallow; [4]): 30
- Tall Mallow plant response rating (tall mallow; [5]): 40
- Tall Mallow plant response rating (tall mallow; [6]): 90
- Plant response rating, Tall Mallow (tall mallow; Rate 250 g/ha): 100
- Plant response rating, Green foxtail (Green foxtail [1]): 100
- Green foxtail plant response rating (Green foxtail [2]; Rate 64 g/ha): 100
- Green foxtail plant response rating (Green foxtail [2]; Rate 125 g/ha): 100
